In the test the target is PDE4D (Homo sapiens, UniProt Q08499). In words: recombinant PDE4 activity assay, [3H]cAMP hydrolysis, dose-response. The class given is biochemical.

Each structure is given as a SMILES string.

PDE4D, sequence (Q08499 whole entry): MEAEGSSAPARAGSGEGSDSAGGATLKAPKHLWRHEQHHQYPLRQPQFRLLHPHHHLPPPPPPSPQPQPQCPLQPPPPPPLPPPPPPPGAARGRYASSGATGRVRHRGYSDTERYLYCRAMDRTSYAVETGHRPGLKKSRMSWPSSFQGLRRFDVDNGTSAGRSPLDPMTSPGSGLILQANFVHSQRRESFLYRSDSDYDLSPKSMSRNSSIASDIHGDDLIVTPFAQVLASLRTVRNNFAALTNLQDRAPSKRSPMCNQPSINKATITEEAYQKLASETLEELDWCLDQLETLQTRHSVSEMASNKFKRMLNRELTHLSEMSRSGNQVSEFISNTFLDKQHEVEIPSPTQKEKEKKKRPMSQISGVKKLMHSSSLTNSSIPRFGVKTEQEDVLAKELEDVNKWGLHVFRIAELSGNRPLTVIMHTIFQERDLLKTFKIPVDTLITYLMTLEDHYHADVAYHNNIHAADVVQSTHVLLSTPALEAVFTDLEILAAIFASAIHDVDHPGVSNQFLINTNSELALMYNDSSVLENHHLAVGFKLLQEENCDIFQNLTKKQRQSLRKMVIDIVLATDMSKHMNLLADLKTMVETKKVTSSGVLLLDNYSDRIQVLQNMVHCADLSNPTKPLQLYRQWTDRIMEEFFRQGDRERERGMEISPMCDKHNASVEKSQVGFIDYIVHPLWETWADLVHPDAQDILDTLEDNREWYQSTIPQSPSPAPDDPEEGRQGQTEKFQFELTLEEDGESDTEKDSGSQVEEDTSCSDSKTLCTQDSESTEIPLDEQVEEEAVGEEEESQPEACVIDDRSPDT

As to `COc1ccc(C(=O)Nc2ccccc2C)cc1OC` [CBU91, 3,4-dimethoxy-N-(o-tolyl)benzamide], the half-maximal inhibitory concentration (IC50) is about 450 nM.

Source of the values: paper PMC8211267, “Potent PDE4 inhibitor activates AMPK and Sirt1 to induce mitochondrial biogenesis” (PLoS ONE, 2021).
